Patent publication US9150553B2, “Carboxamide compounds and their use as calpain inhibitors” (AbbVie Deutschland GmbH & Co. KG, priority 2007, dated 2015)

Molecular target: T1, calpain-I isolated from human erythrocytes (Homo sapiens, UniProt P07384)
T1 construct: calpain-I—isolated from human erythrocytes; purchased Calbiochem 208713; host or cells: human erythrocytes (native tissue isolate)
T1 sequence (P07384 1-714): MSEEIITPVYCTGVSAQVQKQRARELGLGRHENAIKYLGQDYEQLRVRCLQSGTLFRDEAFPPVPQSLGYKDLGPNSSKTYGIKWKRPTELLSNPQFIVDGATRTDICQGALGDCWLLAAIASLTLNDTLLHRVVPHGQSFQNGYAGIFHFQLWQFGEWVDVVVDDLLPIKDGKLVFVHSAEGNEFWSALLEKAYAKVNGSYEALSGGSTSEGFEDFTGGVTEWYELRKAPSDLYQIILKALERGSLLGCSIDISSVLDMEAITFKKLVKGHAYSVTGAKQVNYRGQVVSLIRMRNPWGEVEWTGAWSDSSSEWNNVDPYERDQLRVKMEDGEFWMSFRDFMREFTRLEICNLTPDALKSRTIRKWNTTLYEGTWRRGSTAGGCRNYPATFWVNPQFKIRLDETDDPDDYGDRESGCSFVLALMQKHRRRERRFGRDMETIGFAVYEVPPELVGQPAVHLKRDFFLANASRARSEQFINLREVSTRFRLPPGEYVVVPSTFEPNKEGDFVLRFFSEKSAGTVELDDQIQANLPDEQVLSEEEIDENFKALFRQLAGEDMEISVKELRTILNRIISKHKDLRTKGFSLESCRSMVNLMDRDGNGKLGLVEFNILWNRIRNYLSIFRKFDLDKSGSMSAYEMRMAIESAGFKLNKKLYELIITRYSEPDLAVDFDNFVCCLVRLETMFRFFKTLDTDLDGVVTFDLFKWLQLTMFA
T1 sequence (P04632 1-268 partner): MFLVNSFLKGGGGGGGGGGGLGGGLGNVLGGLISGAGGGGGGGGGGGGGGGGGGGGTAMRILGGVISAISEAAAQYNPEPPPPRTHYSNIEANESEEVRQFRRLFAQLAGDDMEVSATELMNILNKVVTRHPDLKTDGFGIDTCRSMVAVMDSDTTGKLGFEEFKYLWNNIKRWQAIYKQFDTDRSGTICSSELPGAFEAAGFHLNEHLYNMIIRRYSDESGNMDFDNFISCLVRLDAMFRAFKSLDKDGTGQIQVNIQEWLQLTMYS
Test: Calpain I enzyme inhibition, kinetic fluorescence assay
Assay type: biochemical
Details: apparent Ki from IC50 by Cheng-Prussoff; pH 7.3, room temperature
Protocol: The following solutions and buffers were employed: • HBS (for 40 ml): 800 μl 1M HEPES; 2.16 ml 100 mM KCl; 4.8 ml 1M NaCl; 3.59 ml 5% glucose; 60 μl 1M MgSO4; 400 μl 100 mM Na pyruvate, 28.19 ml water; pH 7.2-7.5. • lysis buffer (for 20 ml): 400 μl 1M Tris pH 8.2; 2.74 ml 1M NaCl; 520 μl 0.5M EDTA; 2 ml 10% triton X-100; 0.8 ml (=1:25) CompletePlus (1 tablet/2 ml H2O); 200 μl 100 mM Pefabloc; 13.34 ml water, pH 8.2. • TBST (10×) (for 1I): 100 mM Tris (12.1 g); 1.5M NaCl (87 g); 1% Tween 20 (10 g), adjusted to pH 8. I. Enzyme Inhibition In Vitro: • Testing for blockade of the corresponding enzymic activities was carried out by means of kinetic fluorescence assays (excitation 390 nm, emission 460 nm). • Apparent Ki values were calculated from the experimentally determined IC50 values by the Cheng-Prussoff relation assuming a reversible competitive enzyme inhibition. The Km values of the substrates used under the assay conditions indicated above were: 90 μM (Z-Phe-Arg-AMC, cathepsin B), 10 μM (Z-Gly-Pro-Arg-AMC, cathepsin K), 2 μM (Z-Phe-Arg-AMC, cathepsin L), and 30 μM (Z-Val-Val-Arg-AMC, cathepsin S). • The indicated Ki values are averages of the inhibition constants calculated on the basis of 2 to 4 independent dose-effect plots. • The following assays were used: • 1. Calpain I: • 20 nM calpain-I—isolated from human erythrocytes (Calbiochem #208713), 100 μM Suc-Leu-Tyr-AMC (Bachem #I-1355) as substrate in buffer with 62 mM imidazole, 0.3 mM CaCl2, 0.10% CHAPS, 0.05% BSA, 1 mM DTT at pH 7.3 and room temperature. • 2. Cathepsin B: • 0.25 nM cathepsin B—isolated from human liver (Calbiochem #219362), 100 μM Z-Phe-Arg-AMC (Bachem #I-1160) as substrate 50 mM MES, 2 mM EDTA, 0.05% Brij 35, 2.5 mM L-cysteine, pH 6.0, room temperature. • 3. Cathepsin K: • 3 nM cathepsin K—activated from recombinant human procathepsin K from E. coli (Calbiochem #342001), 10 μM Z-Gly-Pro-Arg-AMC (Biomol #P-142) as substrate in 50 mM MES, 2 mM EDTA, 0.05% Brij 35, 2.5 mM L-cysteine, pH 6.0, room temperature. • 4. Cathepsin L: • 1 nM cathepsin L—isolated from human liver (Calbiochem #219402), 2 μM Z-Phe-Arg-AMC (Bachem #I-1160) as substrate in 50 mM MES, 2 mM EDTA, 0.05% Brij 35, 2.5 mM L-cysteine, pH 6.0, room temperature. • 5. Cathepsin S: • 0.5 nM recombinant human cathepsin S from E. coli (Calbiochem #219343), 20 μM Z-Val-Val-Arg-AMC (Bachem #I-1540) as substrate in 50 mM MES, 2 mM EDTA, 0.05% Brij 35, 2.5 mM L-cysteine, pH 6.0, room temperature. • The results of the in vitro determination are indicated in Table 2. The following abbreviations are used in Table 2: • The “Calpain activity” column, ++ stands for a calpain Ki (Ki(calpain)) of ≦40 nM, + means: 40 nM<Ki(Calpain)≦100 nM, 0 means 100 nM<Ki(Calpain)≦1 μM, − means 1 μM<Ki(Calpain)≦10 μM, −− means Ki(Calpain)>10 μM. • The “Sel. cat. B” column indicates the Ki(cathepsin B)/Ki(calpain) ratio. In this connection, ++ means a Ki(cathepsin B)/Ki(calpain) ratio of ≧30 and + means≦10≦Ki(cathepsin B)/Ki(calpain)<30. • The “Sel. cat. K” column indicates the Ki(cathepsin K)/Ki(calpain) ratio. In this connection, ++ means a Ki(cathepsin K)/Ki(calpain) ratio of ≧30 and + means 10≦Ki(cathepsin K)/Ki(calpain)<30. • The “Sel. cat. L” column indicates the Ki(cathepsin L)/Ki(calpain) ratio. In this connection, ++ means a Ki(cathepsin L)/Ki(calpain) ratio of ≧50 and + means 30≦Ki(cathepsin L)/Ki(calpain)<50. • The “Sel. cat. S” column indicates the Ki(cathepsin S)/Ki(calpain) ratio. […]

Q: Which Ki does the source give for `NC(=O)C1(C(Cc2ccccc2)NC(=O)c2cccnc2-n2ccc(-c3cccc(C(F)(F)F)c3)n2)OCCO1` (stereo not shown) [Compound I-2, N-{1-[2-(Aminocarbonyl)-1,3-dioxolan-2-yl]-2-phenylethyl}-2-{3-[3-(trifluoromethyl)phenyl]-1H-pyrazol-1-yl}nicotinamide] here?
A: > 10 µM
